# Reference: patent US9839701B2, “Aromatic amino acid derivative and positron emission topography (PET) probe using the same” (OSAKA UNIVERSITY, priority 2013, dated 2017)
# Assays:
# [1] = biological target: T1, human LAT1 (Homo sapiens, UniProt Q01650); experiment: Inhibition of amino acid uptake in human LAT1 stably expressing cell line; type: cell-based
# T1 construct: expressed in transfected cells
# Description: (§1) A human LAT1 expression vector or a human LAT2 expression vector was transfected using Lipofectamine (registered trademark) 2000 (Invitrogen) into a human embryonic kidney cell line HEK293. G418-resistant HEK293 clones were selected, and among them, a clone showing human LAT1-specific amino acid uptake and a clone showing human LAT2-specific amino acid uptake were selected and established as a human LAT1 stably expressing cell line and a human LAT2 stably expressing cell line, respectively (Khunweeraphong et al. J Pharmacol Sci. 2012 Aug. 18; 119(4): 368-80. Epub 2012 Jul. 31).
# (§2) The human LAT1 stably expressing cell line and the human LAT2 stably expressing cell line were seeded at 1.2×10^5 cells/well on separate collagen-coated 24-well plates, and after 48 hours, the cells were washed 3 times with an uptake buffer (Na^2+-free Hank's balanced salt solution (HBSS), pH 7.4) prewarmed at 37° C. Compound 10a, compound 10b or a positive control FAMT (fluoro-α-methyltyrosine) was added at 100 μM, and incubation was performed at 37° C. for 3 minutes. Cells not treated with any of these compounds were used as a negative control. After the incubation, 1 μM of [^14C]L-leucine or [^14C]alanine was added to the wells, [^14C]L-leucine or [^14C]alanine uptake was allowed to proceed for 1 minute, and the cells were washed 3 times with an ice-cold uptake buffer. Subsequently, 500 μL of 0.1 M NaOH was added to each well for cell lysis, 20 μL of the lysate was used for the measurement of the protein concentration, and the remaining lysate was used for the measurement of the intracellular radioactivity. The measured radioactivity was normalized to the protein concentration, and on the assumption that the amino acid uptake activity in the negative control was 100%, the percentage (%) of inhibition of amino acid uptake in the presence of each compound was calculated.
# (§3) Using the same cell lines as described in Example 2, the compound of Example 1 was examined for the inhibitory effect on leucine or alanine uptake in the human LAT1 stably expressing cell line and the human LAT2 stably expressing cell line in the same manner as in Example 2. FAMT was used as the positive control. The compound of Example 1 or FAMT was added at 100 μM. Cells not treated with either of these compounds were used as a negative control. On the assumption that the amino acid uptake activity in the negative control (control) was 100%, the percentage (%) of inhibition of amino acid uptake in the presence of FAMT or the compound of Example 1 was calculated. In addition, the cancer cell selectivity was calculated as the ratio of the amino acid uptake activity in the human LAT2 stably expressing cell line relative to that in the human LAT1 stably expressing cell line.
# (§4) In another experiment, the cells were treated with the compound of Example 1 at eight different concentrations (0.1, 1, 3, 10, 30, 100, 300 and 1000 μM), and the concentration causing 50% inhibition of amino acid uptake was calculated as the IC50 value.
# (§5) A human LAT1 stably expressing cell line and a human LAT2 stably expressing cell line, each of which was the same as described in Example 2, were seeded at 1.2×10^5 cells/well, and after 48 hours, the cells were washed 3 times with an uptake buffer (Na^2+-free Hank's balanced salt solution (HBSS), pH 7.4) prewarmed at 37° C. The test compounds, L-tyrosine or the positive control FAMT (fluoro-α-methyltyrosine) was added at 30 μM, and incubation was performed at 37° C. for 3 minutes. Cells not treated with any of these compounds were used as a negative control. After the incubation, 1 μM of [^14C]L-leucine or [^14C]alanine was added to the wells, [^14C]L-leucine or [^14C]alanine uptake was allowed to proceed for 1 minute, and the cells were washed 3 times with an ice-cold uptake buffer. […]
# [2] = biological target: T2, human LAT2 (Homo sapiens, UniProt Q9UHI5); experiment: Inhibition of amino acid uptake in human LAT2 stably expressing cell line; type: cell-based; settings: human LAT2 stably expressing HEK293 cell line; for inhibition at 30 µM: HEK293, compound at 30 μM, read-out: Percentage of inhibition of LAT2-mediated amino acid uptake
# T2 construct: expressed in transfected cells
# T2 sequence (Q9UHI5 1-535): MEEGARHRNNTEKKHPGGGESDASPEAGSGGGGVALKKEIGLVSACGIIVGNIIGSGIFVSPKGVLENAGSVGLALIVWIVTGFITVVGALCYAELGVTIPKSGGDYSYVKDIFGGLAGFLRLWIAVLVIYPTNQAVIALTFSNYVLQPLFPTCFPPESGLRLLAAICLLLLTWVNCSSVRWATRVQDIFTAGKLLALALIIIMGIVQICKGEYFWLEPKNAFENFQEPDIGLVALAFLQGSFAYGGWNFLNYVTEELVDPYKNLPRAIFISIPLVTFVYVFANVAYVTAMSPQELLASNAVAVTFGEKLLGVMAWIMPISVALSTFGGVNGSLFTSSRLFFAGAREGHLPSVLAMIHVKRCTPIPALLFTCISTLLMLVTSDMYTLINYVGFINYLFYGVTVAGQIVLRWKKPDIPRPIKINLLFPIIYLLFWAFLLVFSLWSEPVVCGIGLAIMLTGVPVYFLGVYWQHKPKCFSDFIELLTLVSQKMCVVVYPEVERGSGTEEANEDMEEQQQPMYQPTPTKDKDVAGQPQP
# T2 sequence (P08195 1-529 partner): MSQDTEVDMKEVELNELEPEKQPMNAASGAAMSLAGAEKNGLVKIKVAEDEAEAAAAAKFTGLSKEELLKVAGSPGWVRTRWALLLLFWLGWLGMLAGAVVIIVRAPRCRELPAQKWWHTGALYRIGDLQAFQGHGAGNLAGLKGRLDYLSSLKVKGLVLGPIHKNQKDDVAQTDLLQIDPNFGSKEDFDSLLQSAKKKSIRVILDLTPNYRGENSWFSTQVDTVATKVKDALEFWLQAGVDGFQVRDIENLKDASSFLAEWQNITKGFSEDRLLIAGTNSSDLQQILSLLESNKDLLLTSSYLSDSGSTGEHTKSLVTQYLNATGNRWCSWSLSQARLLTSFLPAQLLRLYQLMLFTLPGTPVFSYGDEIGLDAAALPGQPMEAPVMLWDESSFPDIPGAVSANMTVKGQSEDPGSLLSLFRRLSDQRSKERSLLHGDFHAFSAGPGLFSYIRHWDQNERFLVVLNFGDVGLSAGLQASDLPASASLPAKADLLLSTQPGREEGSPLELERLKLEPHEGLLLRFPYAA
# Description: as §1, §2, §3, §4, §5
# [3] = compound at 30 μM, human LAT1 stably expressing HEK293 cell line, 30 µM
# T1 sequence (Q01650 whole entry, one chain of several): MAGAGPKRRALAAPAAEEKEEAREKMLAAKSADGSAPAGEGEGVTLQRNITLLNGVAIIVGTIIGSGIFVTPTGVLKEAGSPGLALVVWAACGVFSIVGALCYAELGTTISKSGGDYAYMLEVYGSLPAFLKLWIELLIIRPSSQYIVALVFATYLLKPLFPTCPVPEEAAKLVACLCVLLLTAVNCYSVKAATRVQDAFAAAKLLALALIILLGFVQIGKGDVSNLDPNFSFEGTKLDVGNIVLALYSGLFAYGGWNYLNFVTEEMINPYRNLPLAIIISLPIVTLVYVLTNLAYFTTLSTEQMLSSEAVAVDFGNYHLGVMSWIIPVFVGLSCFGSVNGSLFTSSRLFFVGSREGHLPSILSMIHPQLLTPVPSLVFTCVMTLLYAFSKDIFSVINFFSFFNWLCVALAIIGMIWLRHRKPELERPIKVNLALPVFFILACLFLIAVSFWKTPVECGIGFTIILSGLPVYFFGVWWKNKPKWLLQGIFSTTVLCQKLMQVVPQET
Compound,Cancer cell selectivity (amino acid uptake activity in human LAT2 line / in human LAT1 line) ([1]; compound at 30 μM),"Percentage of inhibition of LAT1-mediated amino acid uptake [1, 3]","Percentage of inhibition of LAT2-mediated amino acid uptake ([2]; compound at 30 μM, 30 µM)",further results
"NC(Cc1cc(OCCF)ccc1I)C(=O)O (single isomer, unassigned) [compound 10a, 2-amino-3-(5-(2-fluoroethoxy)-2-iodophenyl)propanoic acid]",1.44,33.8%,4.7%,Cancer cell selectivity (amino acid uptake activity in human LAT2 line / in human LAT1 line) ([1]; compound at 100 μM): higher than that in the human LAT2 stably expressing cell line
"NC(Cc1cc(OCCF)ccc1I)C(=O)O (single isomer, unassigned) [compound 10b, 2-amino-3-(5-(2-fluoroethoxy)-2-iodophenyl)propanoic acid]",8.59,91.2%,24.5%,Cancer cell selectivity (amino acid uptake activity in human LAT2 line / in human LAT1 line) ([1]; compound at 100 μM): higher than that in the human LAT2 stably expressing cell line
"NC(Cc1cc(OCCCCF)ccc1I)C(=O)O (single isomer, unassigned) [compound 25a, 2-amino-3-(5-(4-fluorobutoxy)-2-iodophenyl)propanoic acid]",1.49,37.7%,,inhibition at 30 µM [2]: 7.3%
"NC(Cc1cc(OCCCCF)ccc1I)C(=O)O (single isomer, unassigned) [compound 25b, 2-amino-3-(5-(4-fluorobutoxy)-2-iodophenyl)propanoic acid]",15.13,94.1%,11.3%,
"NC(Cc1cc(OCCOCCF)ccc1I)C(=O)O (single isomer, unassigned) [compound 27 (R), 2-amino-3-(5-(2-(2-fluoroethoxy)ethoxy)-2-iodophenyl)propanoic acid]",1.39,35.4%,,inhibition at 30 µM [2]: 10.6%
"NC(Cc1cc(OCCOCCF)ccc1I)C(=O)O (single isomer, unassigned) [compound 27 (S), 2-amino-3-(5-(2-(2-fluoroethoxy)ethoxy)-2-iodophenyl)propanoic acid]",9.04,89.5%,6.5%,
"N[C@@H](Cc1ccc(O)cc1)C(=O)O [L-Tyr, L-tyrosine, reference compound]",1.16,,,"inhibition at 30 µM ([1]; HEK293, compound at 30 μM, human LAT1 stably expressing HEK293 cell line, read-out: Percentage of inhibition of LAT1-mediated amino acid uptake): 42.3%; inhibition at 30 µM [2]: 33.1%"
"fluoro-α-methyltyrosine [FAMT, reference compound]",1.5,,,"Percentage of inhibition of LAT1-mediated amino acid uptake ([1]; compound at 30 μM, human LAT1 stably expressing HEK293 cell line): 44.2%; Percentage of inhibition of LAT1-mediated amino acid uptake ([1]; compound at 100 μM, human LAT1 stably expressing HEK293 cell line, 1 μM [14C]L-leucine or [14C]alanine, 1 min uptake): 52.4%; Percentage of inhibition of LAT2-mediated amino acid uptake ([2]; compound at 30 μM): 16.3%; Percentage of inhibition of LAT2-mediated amino acid uptake ([2]; compound at 100 μM, 1 μM [14C]L-leucine or [14C]alanine, 1 min uptake): 28.3%"

# Continued, in another order:
Cancer cell selectivity (amino acid uptake activity in human LAT2 line / in human LAT1 line) ([1]; compound at 30 μM),"Percentage of inhibition of LAT1-mediated amino acid uptake [1, 3]","Percentage of inhibition of LAT2-mediated amino acid uptake ([2]; compound at 30 μM, 30 µM)",Compound,further results
1.41,37.5%,11.8%,"NC(Cc1cc(OCCF)ccc1C1CC1)C(=O)O (single isomer, unassigned) [compound 23a, 2-amino-3-(2-cyclopropyl-5-(2-fluoroethoxy)phenyl)propanoic acid]",
11.2,94.5%,39.9%,"NC(Cc1cc(OCCF)ccc1C1CC1)C(=O)O (single isomer, unassigned) [compound 23b, 2-amino-3-(2-cyclopropyl-5-(2-fluoroethoxy)phenyl)propanoic acid]",
1.12,11.6%,0.8%,"NC(Cc1cc(OCCF)ccc1Br)C(=O)O (single isomer, unassigned) [compound 24a, 2-amino-3-(2-bromo-5-(2-fluoroethoxy)phenyl)propanoic acid]",
4.42,85.1%,34.3%,"NC(Cc1cc(OCCF)ccc1Br)C(=O)O (single isomer, unassigned) [compound 24b, 2-amino-3-(2-bromo-5-(2-fluoroethoxy)phenyl)propanoic acid]",
